Measurements from article PMC2481421, “Gene expression response in target organ and whole blood varies as a function of target organ injury phenotype” (Genome Biology, 2008).
Several values for one entry are separate records, joined by “and”; a condition that tells them apart may be missing. Equal entries are not always repeated. Entries after “also recorded” stand apart in the source; their conditions may differ.

Experiments:
[1] = In-life observations: body weight, gross findings before and at necropsy; assay type: in vivo, Male Fischer 344/N rats; settings: individual animals; for Initial Body Wt.: 48 hours group, baseline weight
Procedure: Doses were determined with pilot experiments. […] Serum was collected for clinical chemistry.

liver = assay: Liver histopathology (H&E sections of left liver lobe, severity graded) after a single dose; settings: for Primary site of livery injury: rat, single administration
[2] = 15 mg/kg, gavage in corn oil, 48 hours after single dose
[3] = 50 mg/kg, gavage in corn oil, 48 hours after single dose
[4] = 150 mg/kg, gavage in corn oil, 48 hours after single dose
[5] = Gavage, corn oil, 15 mg/kg, 6 hours
[6] = Gavage, corn oil, 15 mg/kg, 24 hours
[7] = Gavage, corn oil, 50 mg/kg, 6 hours
[8] = Gavage, corn oil, 50 mg/kg, 24 hours
[9] = Gavage, corn oil, 150 mg/kg, 6 hours
[10] = Gavage, corn oil, 150 mg/kg, 24 hours
[11] = Gavage, corn oil, 10 mg/kg, 6 hours
[12] = Gavage, corn oil, 10 mg/kg, 24 hours
[13] = Gavage, corn oil, 10 mg/kg, 48 hours
[14] = Gavage, corn oil, 50 mg/kg, 48 hours
[15] = Gavage, corn oil, 300 mg/kg, 6 hours
[16] = Gavage, corn oil, 300 mg/kg, 24 hours
[17] = Gavage, corn oil, 300 mg/kg, 48 hours
[18] = 25 mg/kg, gavage, corn oil, 6 hours
[19] = 25 mg/kg, gavage, corn oil, 24 hours
[20] = 25 mg/kg, gavage, corn oil, 48 hours
[21] = 75 mg/kg, Gavage, Corn Oil, 48 hours
[22] = 75 mg/kg, gavage, corn oil, 6 hours
[23] = 75 mg/kg, gavage, corn oil, 24 hours
[24] = 250 mg/kg, Gavage, Corn Oil, 48 hours
[25] = 250 mg/kg, gavage, corn oil, 6 hours
[26] = 250 mg/kg, gavage, corn oil, 24 hours

SMILES: CC(=N)S [Thioacetamide]
- Gross Findings ([1]; 15 mg/kg, gavage in corn oil, 48 hours after single dose, at necropsy): No Gross Findings
- Clin/Ob Prior to Necropsy [1, 2]: Ungroomed appearance
- Final Body Wt. [1, 2]: 264.10 g and 257.60 g and 259.00 g and 263.10 g
- Gross Findings ([1]; 50 mg/kg, gavage in corn oil, 48 hours after single dose, at necropsy): Liver left and median lobes rough surface mild; also recorded: Liver left lobe rough surface mild, median lobe pale rough surface mild; also recorded: Liver left and median lobes pale, mildly firm, rough surface
- Clin/Ob Prior to Necropsy [1, 3]: Piloerection; also recorded: Ungroomed appearance
- Final Body Wt. [1, 3]: 233.00 g and 228.70 g and 248.40 g and 236.30 g
- Gross Findings ([1]; 150 mg/kg, gavage in corn oil, 48 hours after single dose, at necropsy): Liver left and median lobes pale, firm, rough surface mild; Kidney red medulla; also recorded: Liver left and median lobes pale, minimally firm, rough surface mild
- Clin/Ob Prior to Necropsy [1, 4]: Ungroomed appearance; piloerection; hunched posture; red fur discoloration (cranial dorsum); also recorded: Ungroomed appearance; piloerection; hunched posture; red nasal discharge
- Final Body Wt. [1, 4]: 230.90 g and 232.40 g and 228.10 g and 228.50 g
- Clin/Ob Prior to Necropsy [1, 5]: Normal
- Gross Findings [1, 5]: No Gross Findings
- Clin/Ob Prior to Necropsy [1, 6]: Normal
- Final Body Wt. [1, 6]: 261.90 g and 245.50 g and 259.10 g and 269.60 g
- Gross Findings [1, 6]: No Gross Findings; also recorded: Liver median lobe rough surface minimal
- Clin/Ob Prior to Necropsy [1, 7]: Normal
- Gross Findings [1, 7]: Liver left lobe mottled; also recorded: No Gross Findings
- Clin/Ob Prior to Necropsy [1, 8]: Ungroomed appearance; also recorded: Normal
- Final Body Wt. [1, 8]: 231.40 g and 233.80 g and 239.30 g and 227.90 g
- Gross Findings [1, 8]: No Gross Findings; also recorded: Liver left lobe rough surface mild, median lobe rough surface minimal; also recorded: Liver left lobe rough surface minimal, median lobe rough surface mild
- Clin/Ob Prior to Necropsy [1, 9]: Normal
- Gross Findings [1, 9]: Liver left lobe mottled; also recorded: No Gross Findings
- Clin/Ob Prior to Necropsy [1, 10]: Normal; also recorded: Red nasal discharge
- Final Body Wt. [1, 10]: 222.50 g and 236.40 g and 240.60 g
- Gross Findings [1, 10]: Liver left and median lobes rough surface mild; also recorded: Liver left lobe mottled rough surface minimal, median lobe rough surface mild
- Initial Body Wt. ([1]; thioacetamide 15 mg/kg, gavage in corn oil): 244.40 g and 241.70 g and 243.00 g and 244.10 g
- Initial Body Wt. ([1]; thioacetamide 50 mg/kg, gavage in corn oil): 243.30 g and 241.60 g and 248.50 g and 241.50 g
- Initial Body Wt. ([1]; thioacetamide 150 mg/kg, gavage in corn oil): 240.40 g and 246.90 g and 242.10 g and 241.40 g
- biliary hyperplasia (liver; 48 hours): evoked biliary hyperplasia
- extent of hepatocellular necrosis, amount of inflammatory cell infiltrates and/or indications of hepatocellular repair (mitosis) across animals (liver; high dose, 48 hour): variability
- Primary site of livery injury (liver): Centrilobular

SMILES: O=NN1CCOCC1 [N-nitrosomorpholine]
- Clin/Ob Prior to Necropsy [1, 11]: Normal
- Gross Findings [1, 11]: No Gross Findings
- Clin/Ob Prior to Necropsy [1, 12]: Normal
- Final Body Wt. [1, 12]: 226.20 g and 225.80 g and 258.80 g and 254.30 g
- Gross Findings [1, 12]: No Gross Findings
- Clin/Ob Prior to Necropsy [1, 13]: Normal
- Final Body Wt. [1, 13]: 238.00 g and 238.70 g and 249.90 g
- Gross Findings [1, 13]: No Gross Findings
- Clin/Ob Prior to Necropsy [1, 7]: Normal
- Gross Findings [1, 7]: No Gross Findings
- Clin/Ob Prior to Necropsy [1, 8]: Normal; also recorded: Corneal Opacity, right eye (pre-dose)
- Final Body Wt. [1, 8]: 225.10 g and 189.30 g and 237.50 g and 242.10 g
- Gross Findings [1, 8]: Liver posterior aspect of left lobe with dark focus (1x1 mm); also recorded: Liver left and median lobes with minimal roughening of surfaces; also recorded: Liver left and median lobes pale; also recorded: Liver left lobe pale and firm, median lobe firm with minimal roughening of surface
- Clin/Ob Prior to Necropsy [1, 14]: Normal
- Final Body Wt. [1, 14]: 229.00 g and 222.00 g and 233.70 g and 237.20 g
- Gross Findings [1, 14]: Liver left and median lobes with mild roughening of surfaces; also recorded: Liver left and median lobes firm with minimal roughening of surfaces; also recorded: No Gross Findings
- Clin/Ob Prior to Necropsy [1, 15]: Normal; also recorded: Corneal Opacity, right eye (pre-dose)
- Gross Findings [1, 15]: No Gross Findings
- Clin/Ob Prior to Necropsy [1, 16]: Normal
- Final Body Wt. [1, 16]: 213.90 g and 207.30 g and 219.00 g and 228.80 g
- Gross Findings [1, 16]: Liver left lobe mottled with minimal roughening of surface, median lobe with minimal roughening of surface; also recorded: Liver left lobe with minimal roughening of surface, median lobe mottled with minimal roughening of surface; also recorded: Liver left and median lobes with firm with mild roughening of surfaces
- Clin/Ob Prior to Necropsy [1, 17]: Ungroomed Appearance
- Final Body Wt. [1, 17]: 205.40 g and 202.50 g and 201.50 g and 203.90 g
- Gross Findings [1, 17]: Liver left and median lobes dark with mild roughening of surfaces; median lobe with prominent centrilobular pattern; also recorded: Liver left and median lobes dark with mild roughening of surfaces; median lobe with fibrin on surface; also recorded: Liver left and median lobes firm and dark with mild roughening of surfaces
- Primary site of livery injury (liver): Centrilobular

SMILES: Brc1ccccc1 [Bromobenzene]
- Clin/Ob Prior to Necropsy [1, 18]: Normal
- Gross Findings [1, 18]: No Gross Findings
- Clin/Ob Prior to Necropsy [1, 19]: Normal
- Final Body Wt. [1, 19]: 249.50 g and 261.40 g and 229.00 g and 231.60 g
- Gross Findings [1, 19]: No Gross Findings
- Clin/Ob Prior to Necropsy [1, 20]: Normal
- Final Body Wt. [1, 20]: 244.40 g and 235.00 g and 246.60 g and 231.60 g
- Gross Findings [1, 20]: No Gross Findings
- Clin/Ob Prior to Necropsy [1, 21]: Normal
- Final Body Wt. [1, 21]: 236.60 g and 225.70 g and 236.40 g and 237.30 g
- Gross Findings [1, 21]: No Gross Findings
- Clin/Ob Prior to Necropsy [1, 22]: Normal
- Gross Findings [1, 22]: No Gross Findings; also recorded: Liver left lobe mottled
- Clin/Ob Prior to Necropsy [1, 23]: Normal
- Final Body Wt. [1, 23]: 242.50 g and 258.00 g and 249.00 g and 228.00 g
- Gross Findings [1, 23]: No Gross Findings
- Clin/Ob Prior to Necropsy [1, 24]: Normal
- Final Body Wt. [1, 24]: 203.70 g and 220.50 g and 212.60 g and 210.30 g
- Gross Findings [1, 24]: Liver left lobe firm with mottled edges, median lobe firm with mottled edges; also recorded: Liver left lobe mild roughening of surface, median lobe mild roughening of surface
- Clin/Ob Prior to Necropsy [1, 25]: Normal
- Gross Findings [1, 25]: No Gross Findings; also recorded: Liver left lobe and median lobe mottled
- Clin/Ob Prior to Necropsy [1, 26]: Ungroomed Appearance
- Final Body Wt. [1, 26]: 214.60 g and 204.50 g and 218.70 g and 200.70 g
- Gross Findings [1, 26]: Liver left lobe dark, mottled, and firm (anterior end darker), median lobe dark, mottled, and firm; also recorded: Liver left lobe mottled with dark edges, median lobe dark and mottled (left side darker)
- Primary site of livery injury (liver): Centrilobular
